Laboratory results as given in US20190358176A1, “METHODS OF SENSITIZING CANCER CELLS TO IMMUNE CELL KILLING” (University of Pittsburgh - of the Commonwealth System of …, priority 2017, published 2019).

What was measured:
rat hepatocytes = assay: Five-day hepatocyte toxicity (PI positive cells); format: cell-based; details: rat hepatocytes, 5-day exposure
Protocol: Rat hepatocytes were isolated using standard two step collagenase digestion (15) and sub-cultivated at 14,000 hepatocytes/well in collagen-1 coated 384 well plates in Williams E Medium supplemented with 10% FBS, 2 mM L-glutamine and 50 U/ml Penicillin and streptomycin. After 4 hours, medium was decanted and replaced with Hepatocyte Maintenance Media (Williams E supplemented with 1.25 mg/ml bovine serum albumin, 6.25 μg/ml human insulin, 100 nM dexamethasone, 6.25 μg/ml human transferrin, 6.25 ng/ml selenous acid, 2 mM L-glutamine, 15 mM HEPES, 100 U/mL penicillin, and 100 U/mL streptomycin). After overnight culture, cells were treated with concentration gradients of test agents. One hour after compound addition, cells were labeled with 200 nM TMRE and 4 μg/ml Hoechst 33342 for 45 min, imaged live on an ArrayScan VTI using a 10× objective, and images were analyzed with the Compartmental Bioapplication. Mitochondria were identified as cytosolic spots by size and brightness. The final parameter was % HIGH RingSpotAvgIntenCh2 (i.e., percentage of cells with TMRE puncta in the cytoplasm based on a threshold set with vehicle treated cells).
A gelling solution of 1.25 mg/ml rat tail collagen type I in pH 7.2 90:10 (v/v) Williams E media/10×HBSS was overlaid onto the rat hepatocytes. The collagen gel was incubated for 1 hour at 37° C., 5% CO2. The collagen sandwich cultures were then challenged for 5 days to test compounds in Hepatocyte Maintenance Media, without refeeding. A 10× solution of 40 μg/ml Hoechst 33342 was added during the final 2 hours of incubation followed by a 10× solution of 20 μg/ml PI for 1 hour. Cells were imaged and the percentage of PI positive cells calculated as above.

MDA-MB-231 cells [1] = assay: HCA of cell motility and cytotoxicity (Oris Pro 384 cell migration plate); format: cell-based, human; details: 48 hours, at antimigratory concentrations
Protocol: HCA of cell motility and cytotoxicity was performed essentially as described (51). MDA-MB-231 cells (15,000/well) were plated in collagen-coated Oris™ Pro 384-well microplates (Platypus Technologies cat # PRO384CMACCS) containing a chemical exclusion zone that dissolves upon cell seeding. Two hours after plating, medium was removed, and cells treated with ten-point, two-fold concentration gradients of test agents. Forty-eight hours after treatment, cells were stained with 10 μg/ml Hoechst 33342 and 1 μg/ml PI in HBSS for 15 min at 37° C. Plates were washed once with PBS and scanned live on the ArrayScan II using a 5× objective. To capture cells that had entered into the exclusion zone, a single field was acquired in the center of the well and nuclei therein enumerated. To assess changes in cell loss, nuclear size, and necrotic cell death, a second scan was performed that captured one field at the edge of the well (51). Parameters exported and plotted were SelectedObjectCountPerValidField (cell density), MEAN ObjectAreaCh1 (nucleus size), and % RESPONDER MeanAvgIntenCh2 (percent PI positive cells based on based on a threshold set with vehicle treated cells).

MDA-MB-231 cells [2] = assay: Immune cell killing (sensitization to PBMC-derived LAK); format: cell-based, human
Protocol: Peripheral blood mononuclear cells were obtained from healthy volunteers with an established IRB approved protocol, separated from heparinized blood on Ficoll-hypaque (GE Healthcare, Chicago) gradients as previously reported (16). Cells were cultured in RPMI 1640 supplemented with 10% FCS, 1% glutamine, 1% penicillin/streptomycin, and stimulated with 6,000 IU of Interleukin 2 for 24 hours. After incubation, cells were washed with PBS and counted. In parallel, MBA-MB-231 cells were pre-treated in a 384 well plate with vehicle or BCI-215 (3 μM). After 24 hours in culture, medium was replaced and PBMC added in two-fold serial dilutions starting with a 50-fold excess of PBMCs in triplicate. After 24 hours of co-culture, cells were fixed with formaldehyde/Hoechst 33342, washed twice with PBS, and imaged on the ArrayScan II. Cancer cells were identified by their larger nuclei compared with PBMC, setting a size gate in the DAPI channel. In experiments with chemotherapeutics, cells carrying a biosensor consisting of a mitochondrial targeting sequence derived from cytochrome c oxidase VIII linked to GFP that is a surrogate for cytochrome c release from mitochondria (17) were pre-treated for 24 hours with cisplatin (2 μM) or doxorubicin (400 nM), exposed to LAK as above, and cancer cells identified and quantified by green fluorescence. Cell densities were normalized to those in the absence of PBMCs. Mean cell densities from multiple independent experiments were averaged and plotted in GraphPad Prism.

MDA-MB-231 cells [3] = assay: Detection and quantitation of ROS in cancer cells (CM-H2-DCFDA); format: cell-based, human; details: 50 μM
Protocol: Detection and quantitation of ROS in cancer cells was performed as described before (14). Briefly, MDA-MB-231 cells were labeled with Hoechst 33342, loaded with CM-H2-DCFDA (5 μM, 15 min), and treated with test agents for 10 min. After two washes, cells were analyzed for Hoechst and ROS/FITC fluorescence on the ArrayScan II. Cells were classified as positive for ROS if their average FITC intensity exceeded a threshold defined as the average FITC intensity plus one SD from DMSO-treated wells.

[4] = system: ERK, JNK/SAPK, p38, MEK1 and MKK4/SEK1 phosphorylation; assay: Western blot of MAPK cascade phosphorylation; format: cell-based, human; details: 20 μM
MDA-MB-231 cells [5] = assay: BCI-215 toxicity in the presence of doxorubicin; format: cell-based, human; details: doxorubicin 5 μM pre-treated 2-3 hours
Protocol: FIG. 9. Reduced toxicity of BCI-215 in the presence of doxorubicin. MDA-MB-231 carrying the mitochondrial-targeted, GFP-labeled cytochrome C biosensor were treated for 2-3 hours with vehicle (DMSO) or doxorubicin (5 μM) before being exposed to concentration gradients of BCI-215 for 20 h. Plates were scanned live on an ImageXpress high content reader at 20× magnification and GFP positive cells enumerated. Cell densities were normalized to vehicle or doxorubicin alone, respectively. Data are the averages ±SD from three independent experiments, each performed in quadruplicate.

zebrafish embryos = details: prior SAR study (12); cited from earlier work
endothelial cell line = details: prior SAR study (12); cited from earlier work
[6] = system: DUSP6/MKP-3 and DUSP1/MKP-1; details: HeLa cells, prior study (12); cited from earlier work

Structure (SMILES): O=C1/C(=C/c2ccccc2)C(NC2CCCCC2)c2cc(Br)ccc21 (stereo not drawn) [BCI-215]
- hepatocyte toxicity, cell death (PI positive cells) (rat hepatocytes): completely devoid of hepatocyte toxicity up to 100
- necrosis (% PI positive cells) (MDA-MB-231 cells [1]): no signs of necrosis
- difference in killing versus vehicle (MDA-MB-231 cells [2]; BCI-215 3 μM pre-treatment versus vehicle): well over three log differences in killing
- LAK number at maximal sensitization (MDA-MB-231 cells [2]; MDA-MB-231 pre-treated with BCI-215 3 μM for 24 hours): 1000 LAK/well
- sensitization to LAK activity (MDA-MB-231 cells [2]; pre-treated 24 hours: BCI-215 3 μM, cisplatin 2 μM, doxorubicin 400 nM): sensitization at lower effector ratios than cisplatin or doxorubicin
- ROS generation at 50 μM (MDA-MB-231 cells [3]): did not generate ROS
- activation of upstream kinases MEK1 and MKK4/SEK1 ([4]; MDA-MB-231, BT-20 and HeLa, 1 hour): activated MEK1 and MKK4/SEK1
- activation (phosphorylation) of ERK, JNK/SAPK and p38 ([4]; MDA-MB-231 cells): activated all three kinases
- toxicity of BCI-215 after doxorubicin pre-treatment (cell numbers) (MDA-MB-231 cells [5]): reduced the toxicity of BCI-215
- toxicity to zebrafish embryos (zebrafish embryos): non-toxic
- toxicity to an endothelial cell line (endothelial cell line): non-toxic
- effect on ectopic DUSP6/MKP-3 and DUSP1/MKP-1 expression [6]: override the effects
